In paper PMC3161826 (Journal of nuclear medicine : official publication, Society …, 2010):
Several values for one entry are separate records, joined by “and”; a condition that tells them apart may be missing. Equal values may be shown once. Read-outs that look alike come from different tables or passages of the source.

Key:
[1] = biological target: T1, 18-kDa translocator protein (TSPO) (Homo sapiens, UniProt P30536); assay: Competition binding assay with 3H-PK11195 in human brain tissue membranes
[2] = test system: 18-kDa translocator protein (TSPO); assay: as above; details: for Ki ratio of LAB to HAB / Ki: brain tissue donors B1–B15; for Ki: read-out: Ki, MABs (single-site model), mixed-affinity binders, mean ± SEM
[3] = biological target: T1, 18-kDa translocator protein (TSPO); assay type: binding; details: for Ki: unlabeled PBR28 50 nM in each well
[4] = biological target: T1, 18-kDa translocator protein (TSPO); assay type: binding; details: read-out: Ki, HABs; platelets, healthy volunteers P1–P13; single class of high-affinity sites, 9 of 13
Target sequence in this assay (P30536 2-169): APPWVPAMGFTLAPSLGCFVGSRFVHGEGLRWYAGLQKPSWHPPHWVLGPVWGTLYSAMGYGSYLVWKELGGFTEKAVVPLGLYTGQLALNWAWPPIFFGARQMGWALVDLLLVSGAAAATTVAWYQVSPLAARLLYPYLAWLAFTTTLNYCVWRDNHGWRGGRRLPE

[5] = test system: 18-kDa translocator protein (TSPO); assay type: binding, human; details: platelets, healthy volunteers
[6] = biological target: 18-kDa translocator protein (TSPO); details: brain tissue donors B1–B15; ref Owen et al. ([6]); cited from earlier work
[7] = read-out: Ki, HABs, high-affinity binders, brain tissue donors B1–B15, mean ± SEM
[8] = read-out: Ki, LABs, low-affinity binders, brain tissue donors B1–B15, mean ± SEM

CCN(CC)C(=O)Cc1c(-c2ccc(OCCCF)cc2)nc2ccc(Cl)cn12 [PBR111]
Ki [1, 7]: 15.6 ± 3.7 nM
Ki [1, 8]: 61.8 ± 10.7 nM
Difference in affinity between HABs and LABs ([2]; brain tissue): ~ 4 fold and < 5 fold
Ki ratio of LAB to HAB [2]: 4.0
Ki [2]: 30.3 ± 4.1 nM
Ki ([3]; read-out: Ki after block with PBR28 (50 nM), LABs, low-affinity binders): 51.7 ± 12.2 nM
Ki ([3]; read-out: Ki after block with PBR28 (50 nM), MABs, mixed-affinity binders): 54.4 ± 5.3 nM

COc1ccc(OC)c(CN(C(C)=O)c2cc(F)ccc2Oc2ccccc2)c1 [DAA1106]
Ki [1, 7]: 2.8 ± 0.3 nM
Ki [1, 8]: 13.1 ± 1.3 nM
Difference in affinity between HABs and LABs ([2]; brain tissue): ~ 4 fold and ~ 5 fold and < 5 fold
Ki ratio of LAB to HAB [2]: 4.7
Ki [2]: 4.8 ± 0.4 nM

CCN(CC)C(=O)Cc1c(-c2ccc(OC)cc2)nn2c(C)cc(C)nc12 [DPA713]
Difference in affinity between HABs and LABs ([2]; brain tissue): ~ 4 fold and < 5 fold

COc1ccccc1CN(C(C)=O)c1cnccc1Oc1ccccc1 [PBR28, N-{[2-(methyloxy)phenyl]methyl}-N-[4-(phenyloxy)-3-pyridinyl]acetamide]
Ki ([1]; Ki, LABs, brain tissue, donors with no history of neurologic disease (B14–B33), single class of low-affinity receptors, 4 of 20): 237 ± 35 nM
Ki ([1]; read-out: Ki, HABs, brain tissue, donors with no history of neurologic disease (B14–B33), single class of high-affinity receptors, 9 of 20): 2.9 ± 0.26 nM
Mean fraction of high-affinity sites in MABs ([2]; brain tissue, donors with no history of neurologic disease): 58% ± 6.6
Fraction of high-affinity sites in MABs, range of values ([2]; brain tissue, range across MAB subjects): 38% to 83
Ki [4]: 3.1 ± 0.57 nM
Mean fraction of high-affinity sites in MABs [5]: 63% ± 9.8
Reduction (%) in specific signal after block with PBR28 (50 nM), HABs ([3]; PBR28 50 nM, 3H-PK11195 specific signal, HABs, 60 min, 0.05 µM): 70% and 69.0 ± 4.6 (n = 4) %
Reduction (%) in specific signal after block with PBR28 (50 nM), LABs ([3]; PBR28 50 nM, 3H-PK11195 specific signal, LABs): 21% and 21.2 ± 4.8 (n = 4) %
Occupancy of binding sites in HABs ([3]; PBR28 at 50 nM, expected occupancy): approximately 94%
receptor occupancy at 0.05 µM ([3]; read-out: Occupancy of binding sites in LABs): ~21%
Ki ratio of LAB to HAB [6]: 55

COc1ccc(OC)c(CN(C(=O)CF)c2ccccc2Oc2ccccc2)c1 [PBR06]
Ki [1, 7]: 8.6 ± 2 nM
Ki [1, 8]: 149 ± 46.6 nM
Ki ratio of LAB to HAB [2]: 17
